In patent US20260240792A1, “COMPOSITIONS FOR TREATING 5-HT2 CONDITIONS AND METHODS OF USING THE SAME” (Board of Supervisors of Louisiana State University and …, priority 2022, published 2026):
Entries after “also recorded” stand apart in the source; their conditions may differ.

Experiments:
rabbits [1] = experiment: Topical ocular dosing in rabbits: observation of CNS, systemic, ocular and behavioral effects, ocular tolerability; format: in vivo, rabbit; details: 0.01%
Experimental: Apparent Ocular Irritability • b. Induction of Inflammation • c. Reduction of Corneal Barrier Integrity • d. Dry Eye or Excessive Tearing • e. Induction of Neovascularization • f. Induction of Scleral Reddening
Parameters Assessed during 2 hour Observation Window (see, for example, FIG. 1):
Two studies were performed to determine at what dose between 0.01% and 0.1% were behavioral and/or systemic effects observed. 50 μL doses at 0.01%, 0.05%, and 0.075% per eye applied and assessments were made as indicated herein.
The application of most topical eye drops requires repeatedly dosing up to 9 times per day in order to maintain efficacy across the course of waking hours and have efficacious levels available during sleeping hours. The effects of repeated ocular dosing of R-DOI were assessed in a similar manner as described herein, with the exception that doses of 0.01% or 0.05% were applied repeatedly as outlined herein:
Animals from the acute dosing were continued through the repeated dosing study. Animals were dosed at the indicated concentration 2 times on day 1 and then dosed 4 times per day for 3 subsequent days. Doses were administered at 50 μl per eye into both eyes of the animal.
Rabbits were assessed for clinically clear eyes by slit lamp ophthalmic scoring. All eyes of all rabbits were normal.
Following balancing animals were treated with 50 μL of Control ophthalmic BSS/0.5% CMC or 0.01% Compound 1 in ophthalmic BSS/0.5% CMC.
Any behavioral changes were continuously monitored over the next 2.5 hours (FIG. 3).
We can determine if a single dose of the ocular composition of 0.01% R-DOI with 0.5% carboxymethylcellulose in ophthalmic BSS: • 1. Reproduced previous findings that R-DOI had IOP depressing effects. • 2. Produced any readily observable behavioral effects. • 3. Was tolerated by the eye without adverse ocular effects, including absence of: • a. Apparent Ocular Irritability • b. Induction of Inflammation • c. Dry Eye or Excessive Tearing • d. Induction of Scleral Reddening • 4. Reduced IOP • 5. Maintained Reduction in IOP • 6. Increased Tear Film Production
(§1) • Rabbits were assessed for clinically clear eyes by slit lamp ophthalmic scoring. All eyes of all rabbits were normal. • Each eye of each rabbit was then assessed for initial IOP by tonometer. • Each eye of each rabbit was assessed for tear film production by Schirmer's Tear Flo Strips at a 30 second interval of analysis. Tear measures were evaluated by a digital caliper to determine mm of tears collected. • Rabbits were sorted into two groups attempting to balance IOP numbers (one higher, one lower animal per group). • Following animals were treated with 50 μL of Control ophthalmic BSS/0.5% CMC or 0.01% R-DOI HCl in ophthalmic BSS/0.5% CMC. • Any apparent behavioral changes were continuously monitored over the next 2.5 hours. • IOP determinations were made at 30 minutes, 1 hour, 2 hours and 3 hours, 5 hours, 7 hours and 24 hours-eyes were examined closely for any adverse effects during these IOP measures. • 7 hours post treatment when IOP returned to control levels tear film production was assessed (see, for example, FIG. 9).

rabbits [2] = experiment: Intraocular pressure (IOP) after topical ocular dosing in rabbits; format: in vivo, rabbit
Experimental: The IOP was assessed as a component of clinical outcomes for the animals in the studies described herein. The table below represents the effect of R-DOI on IOP 2 hours after dosing with the indicated concentration of R-DOI. Eyes were individually assessed and are indicated as IOP for the right (OD) or left (OS) eye.
Each eye of each rabbit was then assessed for initial IOP by tonometer.
IOP determinations were made at 30 minutes, 1 hour, 1.5 hours and 2.5 hours-eyes were examined closely for any adverse effects during these IOP measures.
(§2) 3 days post treatment at the same time initial measures were made, IOP and tear film production were re-assessed to examine if effects were sustained post 1 treatment.
The IOP was assessed via a TonoVet rebound Tonometer. The tables herein (see, for example, FIG. 4) represent the effect of Compound 1 on IOP at time intervals within the first 2.5 hours after dosing with 0.01% Compound 1 in BSS with 0.5% CMC. Eyes were individually assessed and are indicated as IOP for the right (OD) or left (OS) eye. 3 days post treatment eyes were reassessed for IOP changes to see if the effects of treatment lasted over a prolonged period.
as §1
The IOP was assessed via a TonoVet rebound Tonometer. The tables herein (see, for example, FIGS. 10-11) represents the effect of R-DOI on IOP at the defined time intervals Eyes were individually assessed and are indicated as IOP for the right (OD) or left (OS) eye.

rabbits [3] = experiment: Tear film production by Schirmer's Tear Flo Strips in rabbits; format: in vivo, rabbit
Experimental: Each eye of each rabbit was assessed for tear film production by Schirmer's Tear Flo Strips at a 30 second interval of analysis. Tear measures were evaluated by a digital caliper to determine mm of tears collected.
as §2
(§3) Effects of Compound 1 on Tear Production: Current IOP lowering glaucoma drugs eventually have effects on tear production resulting in dry eye conditions. Further, there are additional associations between dry eye and glaucoma, with co-incidence of the two conditions quite common. […] Selective 5-HT agonists/antagonists can reverse symptoms of dry eye-a very large ophthalmic market. The effects of Compound 1 on tear film production (see, for example, FIG. 6 panels A-D) were therefore assessed by a Schirmer's Tear Flo strip and measured using a digital micrometer caliper.
as §1
as §3, with “R-DOI” for “Compound 1”, “conditions” for “conditions quite”, “production” for “production (see, for example, FIG. 6 panels A-D)”

[4] = Solubility in ophthalmic eye drop (BSS, 0.5% CMC); format: physicochemical; details: 0.1% (5 mg/5 mL) in BSS with 0.5% CMC, pH 7.0
Experimental: Non-Limiting, Exemplary Findings Discussed within: • The NCE Compound 1 was formulated within an ophthalmic eye drop with BSS and 0.5% carboxymethylcellulose (CMC) at percentages of 0.1% (5 mg/5 ml) and lower with a pH of 7.0.
• The R-DOI HCl was formulated within an ophthalmic eye drop with BSS and 0.5% carboxymethylcellulose (CMC) at percentages of 0.1% (5 mg/5 mL) and lower with a pH of 7.0.

[5] = test system: TGF-Induced SMAD-mediated signaling; experiment: TGF-β induced SMAD-mediated signaling, dual luciferase reporters; format: cell-based
Normal Human Fibroblasts = experiment: TGF-β transformation of normal human fibroblasts to myofibroblasts; format: cell-based; details: TGF-β treated human fibroblasts
C6 glioma cells = details: cocktail of TNF-α and INF-γ, read-out: IC50 for block of LPS and cytokine stimulated nitrite accumulation; cited from earlier work
5-HT2A receptors = 5-HT2A receptors (Homo sapiens, UniProt P28223); details: cited from earlier work
Chain of 5-HT2A receptors (P28223 whole entry): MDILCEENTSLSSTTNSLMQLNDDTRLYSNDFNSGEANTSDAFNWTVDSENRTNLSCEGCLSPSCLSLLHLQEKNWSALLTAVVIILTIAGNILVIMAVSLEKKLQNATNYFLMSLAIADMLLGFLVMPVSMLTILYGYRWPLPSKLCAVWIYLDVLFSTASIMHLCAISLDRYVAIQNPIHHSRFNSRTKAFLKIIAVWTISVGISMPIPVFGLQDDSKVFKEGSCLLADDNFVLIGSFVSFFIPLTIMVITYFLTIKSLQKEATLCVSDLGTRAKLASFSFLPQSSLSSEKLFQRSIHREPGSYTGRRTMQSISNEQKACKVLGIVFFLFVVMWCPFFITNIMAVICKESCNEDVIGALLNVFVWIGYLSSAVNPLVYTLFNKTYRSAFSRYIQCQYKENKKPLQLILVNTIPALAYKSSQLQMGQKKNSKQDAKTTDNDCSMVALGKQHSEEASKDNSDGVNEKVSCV

With `COc1cc(CC(C)C)c(OC)cc1CCN` [Compound 1] as the compound, how does the “adverse events (ocular, systemic, behavioral or otherwise)” value (rabbits [1]; 50 μL per eye, both eyes, single dose) read?
Its value is “No readily apparent adverse events; also recorded: No observable changes; also recorded: no adverse or abnormal events observed”.

What about the “acute ocular toxicity, irritability or adverse ocular reactions” value (rabbits [1]; acute single dosing) of the same compound?
Its value is “did not exhibit any acute ocular toxicity, irritability or adverse ocular reactions; also recorded: did not display any signs of ocular irritability”.

What about the “period for which decreased intraocular pressure was sustained post administration” value (rabbits [2]; 0.01% single dose, non-diseased eye model) of the same compound?
The value was “at least 3 days”.

What about the “IOP across the 2.5 hour observation window” value (rabbits [2]; 0.01% single dose, 30 minutes, 1 hour, 1.5 hours, 2.5 hours) of the same compound?
Its value is “decreased IOP at all points across the 2.5 hour observation window”.

What about the “Return to Baseline IOP” value (rabbits [2]; post single dose administration of 0.01%) of the same compound?
Its value is “approximately 12 days”.

And the “effect on intraocular pressure” value (rabbits [2]; single topical ocular dose)?
Its value is “decreased intraocular pressure with a single dose”.

What about the “average increase in tear film production” value (rabbits [3]; 0.01% single dose, 2.5 h post treatment) of the same compound?
Its value is 3.4 mm.

And the “average increase of tear film” value (rabbits [3]; 0.01% single dose, 3 days post treatment)?
Its value is “approximately 1.9 mm”.

What about the “tear production as measured by Schirmer's test” value (rabbits [3]; topical ocular dose) of the same compound?
The value was “increased tear production; also recorded: significant increase in tear production”.

What about the “Solubility of the compound” value [4] of the same compound?
The value was “good with no remaining precipitates”.

With `COc1cc(CC(C)N)c(OC)cc1I` (centres unmarked) [DOI, 2,5-Dimethoxy-4-iodoamphetamine] as the compound, how does the “TGF-Induced SMAD-mediated signaling” value [5] read?
Its value is “Reduces TGF-Induced SMAD-mediated signaling”.

And the “Transformation into Myofibroblasts” value (Normal Human Fibroblasts)?
The value was “Prevents Transformation into Myofibroblasts”.

And the IC50 (C6 glioma cells)?
The IC50 was 8 ± 3 nM.

For `O=C(c1ccc(F)cc1)C1CCN(CCn2c(=O)[nH]c3ccccc3c2=O)CC1` [ketanserin], which “selectivity for 5-HT2A receptors over 5-HT2C receptors” value (5-HT2A receptors) is on record?
Its value is ~ 20 fold.
